This is an account of results in patent US20110028405A1, “SULFAMIDES AS ZAP-70 INHIBITORS” (priority 2007, published 2011).

One experiment has as its system Jurkat cells. Nature of the experiment: Calcium release assay (Fluo-4, flow cytometry, anti-CD3 stimulation). The settings on record: Homo sapiens; intracellular Ca2+ release in Jurkat cells after anti-CD3 activation. Format: cell-based. The protocol: Compounds of the present invention were tested in a Calcium release assay as described below.
The development of fluorescent probes makes it possible to measure the concentration of intracellular free Calcium ions in single living cells. Cells are first loaded with a cell-permeable Ca^2+-sensitive dye, then the test compound is added. Finally, cells are activated through the T cell receptor with an anti-CD3 antibody shortly before data acquisition on the flow cytometer. The release of Ca^2+ is measured as a function of time after cell stimulation. This protocol describes the flow cytometry method using the Fluo-3 and Fluo-4 dyes (Minta et al., 1989, J. Biol. Chem. 264(14):8171-8178) to measure the intracellular Ca^2+ concentration in Jurkat cells (see also June et al., 1997, Measurement of intracellular calcium ions by flow cytometry. In: Current Protocols in Cytometry (1997) Unit 9.8.1-9.8.19, John Wiley & Sons, Inc.).
1) Prepare a work plan indicating the number of samples to be analyzed including controls. 2) Cell harvest: Centrifuge 50 to 100 ml of a Jurkat cell culture for 5 minutes at 1100 rpm. Discard the supernatant, pool the resuspended cell pellets in a single 50 ml Falcon tube, and fill up to 50 ml with PBS-CaCl2 (without FCS). Centrifuge again sample again. 3) Resuspend cell pellet with PBS-CaCl2 (without FCS) to achieve a concentration not lower than 10×10^6 cells/ml. Prepare an adequate dilution to evaluate the cell concentration and count the cells. 4) Separate the volume of cells needed to be loaded (for example […] for 20 samples) in a 50 ml Falcon tube. Fill up with PBS-CaCl2 to 900 μl for 107 cells. 5) Prepare in the dark a 1:1 mix of FLUO-4 (1 mM)+Pluronic F-127 (20%). 5 μl of Fluo-4 are needed per 107 cells. 6) Prepare a 1/10 dilution of this mix with PBS-CaCl2 (in the dark; for example 5 μl Fluo-4+5 μl F-127 completed to 100 μl). 7) Add the dye solution to the cells. […] 8) Incubate the sample for 30 minutes in a cell incubator (37° C., 5% CO2). Mix from time to time. 9) During this time prepare the adequate test compound dilution in PBS-CaCl2 (with 10% FCS). The solution should be 10 times more concentrated than the desired final concentration. Vortex each dilution. Prepare also the antibody dilutions: anti-CD3 (1/200) and GAM (1/25). 10) Label FACS tubes and distribute in the corresponding tube 30 μl of the compound dilution or only buffer for the control tubes. 11) After 30 minutes of incubation wash the cells twice in PBS-CaCl2 (with 10% FCS). During the washing steps make sure that the flow cytometer is already “ON” in order to warm the laser. 12) Resuspend the cell pellet in PBS-CaCl2 (with 10% FCS) at a concentration of 1.5×10^6 cells/ml. 13) Distribute 300 μl of cell suspension into the FACS tubes and mix gently. The compound incubation is starting. Keep samples at room temperature in the dark. 14) Open the settings of the cytometer. It is advised to have a template ready which is used for all measurements. Settings of the machine should also be the same from one experiment to the other which permits to evaluate the reproducibility of the cell preparation. 15) In Setup modus control your cell preparation on the cytometer. Cells should fit in the pre-defined gates. 16) During the compound incubation time, check also that cells are responding to the anti-CD3 activation as expected. Set a timer at 8 sec. Add 6 μl of anti-CD3 dilution (0.2 μg/ml final) and mix gently. Add 1 μl of GAM dilution (0.75 μg/ml final) and mix gently. Incubate the samples in water bath at 37° C. while starting timer. After 8 seconds of incubation, acquire data at medium speed for 200 seconds. A clear increase of fluorescence should appear after 1 minute. 17) Make sure that the cells rest and equilibrate at room temperature 15 minutes before FACS data acquisition 18) Data acquisition: Samples to be compared should be measured consecutively. 19) For a better reproducibility, make sure that data for the loaded cells are acquired within 2 hours. […]

Another experiment deals with T1, ZAP-70 (Homo sapiens, UniProt P43403).
T1 construct: endogenous in cells; host or cells: cell lysate
T1 sequence (P43403 1-619): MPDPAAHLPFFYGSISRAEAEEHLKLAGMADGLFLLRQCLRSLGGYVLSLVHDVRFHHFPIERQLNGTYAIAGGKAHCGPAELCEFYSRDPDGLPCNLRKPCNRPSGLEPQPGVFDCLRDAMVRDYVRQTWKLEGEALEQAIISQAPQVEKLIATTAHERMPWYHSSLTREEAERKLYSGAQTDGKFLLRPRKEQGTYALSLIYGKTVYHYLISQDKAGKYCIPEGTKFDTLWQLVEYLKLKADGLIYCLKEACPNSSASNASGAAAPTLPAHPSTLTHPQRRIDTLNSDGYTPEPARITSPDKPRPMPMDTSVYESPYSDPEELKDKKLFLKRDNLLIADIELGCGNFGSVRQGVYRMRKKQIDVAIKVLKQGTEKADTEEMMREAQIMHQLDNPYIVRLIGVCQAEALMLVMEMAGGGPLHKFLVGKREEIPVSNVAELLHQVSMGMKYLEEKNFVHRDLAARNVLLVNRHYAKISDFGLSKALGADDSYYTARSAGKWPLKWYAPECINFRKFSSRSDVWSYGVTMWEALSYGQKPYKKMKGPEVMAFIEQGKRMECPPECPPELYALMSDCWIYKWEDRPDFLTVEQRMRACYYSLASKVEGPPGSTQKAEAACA
Briefly: ZAP-70 kinobeads assay. Format: binding. Conditions: cell lysate, dot blot detection. The protocol:
The compounds of the present invention as described in the previous examples can be tested in the ZAP-70 kinobeads assay as described (EP-A 1862802 and WO-A 2007/137867). Briefly, test compounds (at various concentrations) and the affinity matrix with the immobilized aminopyrido-pyrimidine ligand 24 are added to cell lysate aliquots and allowed to bind to the proteins in the lysate sample. After the incubation time the beads with captured proteins are separated from the lysate. Bound proteins are then eluted and the presence ZAP-70 is detected and quantified using a specific antibody in a dot blot procedure and the Odyssey infrared detection system.

In general, IC50 refers to the concentration at which inhibition is half-maximal. Turning to `COc1cc(Nc2ncc(F)c(Nc3cccc(C)c3NS(N)(=O)=O)n2)cc(OC)c1OC` [Example 30, N-(2-(5-fluoro-2-(3,4,5-trimethoxyphenylamino)pyrimidin-4-ylamino)-6-methylphenyl)sulfamide], the IC50 in the experiment on Jurkat cells and on ZAP-70 was under 100 nM each time.

As to `COc1cc(Nc2ncc(F)c(Nc3ccc(C)c(C)c3NS(N)(=O)=O)n2)cc(OC)c1OC` [Example 31, N-(6-(5-fluoro-2-(3,4,5-trimethoxyphenylamino)pyrimidin-4-ylamino)-2,3-dimethylphenyl)sulfamide], the IC50 with Jurkat cells and against ZAP-70 was under 1000 nM throughout.

With `COc1cccc(Nc2nc(Nc3cc(OC)c(OC)c(OC)c3)ncc2F)c1NS(N)(=O)=O` [Example 32, N-(2-(5-fluoro-2-(3,4,5-trimethoxyphenylamino)pyrimidin-4-ylamino)-6-methoxyphenyl)sulfamide], the half-maximal inhibitory concentration (IC50) with Jurkat cells and on ZAP-70 was under 100 nM each time.

`CCOc1cccc(Nc2nc(Nc3cc(OC)c(OC)c(OC)c3)ncc2F)c1NS(N)(=O)=O` [Example 33, N-(2-ethoxy-6-(5-fluoro-2-(3,4,5-trimethoxyphenylamino)pyrimidin-4-ylamino)phenyl)sulfamide]: the IC50 was under 1000 nM in the experiment on Jurkat cells and under 100 nM on ZAP-70.

Turning to `COc1cc(Nc2ncc(F)c(Nc3ccc(C)cc3NS(N)(=O)=O)n2)cc(OC)c1OC` [Example 34, N-(2-(5-Fluoro-2-(3,4,5-trimethoxyphenylamino)pyrimidin-4-ylamino)-5-methylphenyl)sulfamide], the concentration for half-maximal inhibition (IC50) in the experiment on Jurkat cells and against ZAP-70 was under 1000 nM throughout.

With `COc1cc(Nc2ncc(F)c(Nc3ccc(N4CCOCC4)cc3NS(N)(=O)=O)n2)cc(OC)c1OC` [Example 35, N-(2-(5-Fluoro-2-(3,4,5-trimethoxyphenylamino)pyrimidin-4-ylamino)-5-morpholinophenyl)sulfamide], the concentration for half-maximal inhibition (IC50) in the experiment with Jurkat cells and against ZAP-70 was under 1000 nM throughout.

For the compound `COc1ccc(NS(N)(=O)=O)c(Nc2nc(Nc3cc(OC)c(OC)c(OC)c3)ncc2F)c1` [Example 36, N-(2-(5-fluoro-2-(3,4,5-trimethoxyphenylamino)pyrimidin-4-ylamino)-4-methoxyphenyl)sulfamide], the results for the IC50 in the experiment on Jurkat cells and against ZAP-70 were under 1000 nM and under 50000 nM, respectively.

For `COc1cc(Nc2ncc(F)c(Nc3cc(F)ccc3NS(N)(=O)=O)n2)cc(OC)c1OC` [Example 37, N-(4-fluoro-2-(5-fluoro-2-(3,4,5-trimethoxyphenylamino)pyrimidin-4-ylamino)phenyl)sulfamide], the IC50 in the experiment on Jurkat cells and on ZAP-70 was under 1000 nM throughout.
